According to patent publication US12495798B2, “Nicotinamide compound and herbicidal composition comprising compound” (KOREA RESEARCH INSTITUTE OF CHEMICAL TECHNOLOGY, priority 2019, dated 2025):

How the values were obtained:
Type in all cases: in vivo
wheat [1] = test: Phytotoxicity test for upland field crops (foliar treatment test); set-up: key: 0 (no harm); 9 (complete withered)
Method in brief: (§1)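 Application rate ranged 19˜300 g a.i./ha, delivered as a foliar spray (100 ml/m^2) in 33% acetone with 0.1% Tween-20 to crops raised at 30±5 °C under 14/10 h light/dark. Symptoms were assessed 7 and 14 days post-treatment, extending to 21 days where necessary, using a 0–9 injury grade relative to untreated control.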

rice [2] = test: as above; set-up: key: 0 (no harm); 9 (complete withered)
Method in brief: as §1

corn [3] = test: as above; set-up: key: 0 (no harm); 9 (complete withered)
Method in brief: as §1

soybean [4] = test: as above; set-up: key: 0 (no harm); 9 (complete withered)
Method in brief: as §1

cotton [5] = test: as above; set-up: key: 0 (no harm); 9 (complete withered)
Method in brief: as §1

wheat [6] = test: Phytotoxicity test for field crops (soil treatment test); set-up: key: 0 (no harm); 9 (complete withered)
Experimental: (§2) Experimental Example 4: Phytotoxicity Test for Field Crops (Soil Treatment Test)
(§3) Soil treatment was performed for sown crops and weeds in a square plastic pot having a surface area of 50 cm^2 filled with sterilized horticultural soil (pH 6.1, organic material 1.0%, clay 21%, silt 17%, sand 52%). As a fertilizer per pot, 0.5 g of horticultural mixed fertilizer (N:P:K=17:21:17) was treated by mixing with soil. Five kinds of crops such as rice, wheat, corn, soybean, and cotton were sown in each pot. One day after sowing, test compound solutions were made by diluting with the diluent (33% acetone, 0.1% Tween-20) so that the final treatment amount of the test compounds was 19˜300 g a.i./ha. The prepared test compound solutions were treated using a spray booth (SB6-016) at a treatment amount of 100 ml per 1 m^2 of treatment area. The treated crops were managed in greenhouse conditions (average temperature 30±5° C., light/dark=14/10 hours). External symptoms and phytotoxicity were visually investigated 10 and 20 days after treatment. In the evaluation of the phytotoxicity for the crop, the grade of 0 (no harm) to 9 (complete withered) was used. The results of Table 10 were obtained by evaluating phytotoxicity value to the untreated control.

rice [7] = test: as above; set-up: key: 0 (no harm); 9 (complete withered)
Experimental: as §2, §3

corn [8] = test: as above; set-up: key: 0 (no harm); 9 (complete withered)
Experimental: as §2, §3

soybean [9] = test: as above; set-up: key: 0 (no harm); 9 (complete withered)
Experimental: as §2, §3

cotton [10] = test: as above; set-up: key: 0 (no harm); 9 (complete withered)
Experimental: as §2, §3

black nightshade [11] = test: Herbicidal activity test against upland field weeds (foliar treatment test); settings: 50 g ai/ha, scale 0-100
Method in brief: (§4)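 Weeds were raised from seed or rootstocks in horticultural soil in a greenhouse (30±5° C., 14/10 h light/dark), then foliage was hand-sprayed with compound at 50 or 75 g a.i./ha in 50% acetone with 0.1% Tween-20. Control was scored visually 0–100 against untreated plants after 14 days, or 21 if needed.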

barnyard grass [12] = test: Herbicidal activity test against upland field weeds (soil treatment test); set-up: key to Soil treatment herbicidal activity, barnyard grass: 0 (no control); 100 (complete control); settings: 50 g ai/ha, scale 0 (no control) to 100 (complete control)
Experimental: (§5) Experimental Example 2: Herbicidal Activity Test Against Upland Field Weeds (Soil Treatment Test) Soil treatment was performed as follows: After filling a square plastic pot having a surface area of 350 cm^2 with sandy loam mixed with 1 g per pot (350 cm^2) of horticultural mixed fertilizer (N:P:K=11:10:11), seeds (10˜15 grains) or rootstocks (2 pieces) of 5 kinds of grassy weeds of sorghum, barnyard grass, quack grass, crabgrass, fall panicum, and 5 kinds of broadleaf weeds of black nightshade, indian jointvetch, velvetleaf, cocklebur, bindweed, which had been stored in a low temperature (6° C.), were sown. The day after sowing, test compound solutions were made by diluting with a preparation solution (including 50% acetone, 0.1% Tween-20) so that the final treatment amount of the test compounds was 50 or 75 g a.i./ha. The prepared test compound solution was used for treating soil surface by hand-spraying 14 mL per pot in a fume hood. After the treatment, it was managed under the same greenhouse conditions (average temperature 30±5° C., light/dark=14/10 hours), and after 14 days (after 21 days if necessary), the external symptoms and efficacy were investigated according to the scale of 0 (no control) to 100 (complete control). The results of Table 8 were obtained by evaluating weed control value to the untreated control by conducting visual assessment.

indian jointvetch [13] = test: as above; set-up: key to Soil treatment herbicidal activity, Indian jointvetch: 0 (no control); 100 (complete control); settings: 50 g ai/ha, scale 0 (no control) to 100 (complete control)
Experimental: as §5

bindweed = test: Herbicidal activity test against upland field weeds (foliar treatment test); set-up: key to Foliar treatment herbicidal activity, Bindweed: 0 (no control); 100 (complete control); settings: 50 g ai/ha, scale 0-100
Method in brief: as §4

cocklebur = test: as above; set-up: key to Foliar treatment herbicidal activity, Cocklebur: 0 (no control); 100 (complete control); settings: 50 g ai/ha, scale 0-100
Method in brief: as §4

fall panicum [14] = test: as above; settings: 50 g ai/ha, scale 0-100
Method in brief: as §4

fall panicum [15] = test: Herbicidal activity test against upland field weeds (soil treatment test); set-up: key to Soil treatment herbicidal activity, Fall panicum: 0 (no control); 100 (complete control); settings: 50 g ai/ha, scale 0 (no control) to 100 (complete control)
Experimental: as §5

velvetleaf [16] = test: Herbicidal activity test against upland field weeds (foliar treatment test); settings: 50 g ai/ha, scale 0-100
Method in brief: as §4

quack grass [17] = test: as above; set-up: key to Foliar treatment herbicidal activity, quack grass: 0 (no control); 100 (complete control); settings: 50 g ai/ha, scale 0-100
Method in brief: as §4

sorghum [18] = test: Herbicidal activity test against upland field weeds (soil treatment test); set-up: key to Soil treatment herbicidal activity, Sorghum: 0 (no control); 100 (complete control); settings: 50 g ai/ha, scale 0 (no control) to 100 (complete control)
Experimental: as §5

crabgrass [19] = test: as above; set-up: key to Soil treatment herbicidal activity, Crabgrass: 0 (no control); 100 (complete control); settings: 50 g ai/ha, scale 0 (no control) to 100 (complete control)
Experimental: as §5

crabgrass [20] = test: Herbicidal activity test against upland field weeds (foliar treatment test); settings: 50 g ai/ha, scale 0-100
Method in brief: as §4

quack grass [21] = test: Herbicidal activity test against upland field weeds (soil treatment test); set-up: key to Soil treatment herbicidal activity, quack grass: 0 (no control); 100 (complete control); settings: 50 g ai/ha, scale 0 (no control) to 100 (complete control)
Experimental: as §5

barnyard grass [22] = test: Herbicidal activity test against upland field weeds (foliar treatment test); set-up: key to Foliar treatment herbicidal activity, barnyard grass: 0 (no control); 100 (complete control); settings: 50 g ai/ha, scale 0-100
Method in brief: as §4

indian jointvetch [23] = test: as above; settings: 50 g ai/ha, scale 0-100
Method in brief: as §4

black nightshade [24] = test: Herbicidal activity test against upland field weeds (soil treatment test); set-up: key to Soil treatment herbicidal activity, black nightshade: 0 (no control); 100 (complete control); settings: 50 g ai/ha, scale 0 (no control) to 100 (complete control)
Experimental: as §5

velvetleaf [25] = test: as above; set-up: key to Soil treatment herbicidal activity, velvet leaf: 0 (no control); 100 (complete control); settings: 50 g ai/ha, scale 0 (no control) to 100 (complete control)
Experimental: as §5

sorghum [26] = test: Herbicidal activity test against upland field weeds (foliar treatment test); settings: 50 g ai/ha, scale 0-100
Method in brief: as §4

Cn1nnnc1NC(=O)c1ccc(C(F)(F)F)nc1Sc1nnnn1C [Compound No. 1-40, N-(1-methyl-1H-tetrazol-5-yl)-2-((1-methyl-1H-tetrazol-5-yl)thio)-6-(trifluoromethyl)nicotinamide]
Foliar treatment phytotoxicity, Wheat (wheat [1]; 50 g ai/ha, Wheat (7 days after treatment)): 0
Foliar treatment phytotoxicity, Wheat (wheat [1]; 50 g ai/ha, Wheat (14 days after treatment)): 0
Foliar treatment phytotoxicity, Wheat (wheat [1]; 100 g ai/ha, Wheat (7 days after treatment)): 1
Foliar treatment phytotoxicity, Wheat (wheat [1]; 100 g ai/ha, Wheat (14 days after treatment)): 0
Foliar treatment phytotoxicity, Rice (rice [2]; 50 g ai/ha, Rice (7 days after treatment)): 0
Foliar treatment phytotoxicity, Rice (rice [2]; 50 g ai/ha, Rice (14 days after treatment)): 0
Foliar treatment phytotoxicity, Rice (rice [2]; 100 g ai/ha, Rice (7 days after treatment)): 0
Foliar treatment phytotoxicity, Rice (rice [2]; 100 g ai/ha, Rice (14 days after treatment)): 1
Foliar treatment phytotoxicity, Corn (corn [3]; 50 g ai/ha, Corn (7 days after treatment)): 0
Foliar treatment phytotoxicity, Corn (corn [3]; 50 g ai/ha, Corn (14 days after treatment)): 0
Foliar treatment phytotoxicity, Corn (corn [3]; 100 g ai/ha, Corn (7 days after treatment)): 0
Foliar treatment phytotoxicity, Corn (corn [3]; 100 g ai/ha, Corn (14 days after treatment)): 0
Foliar treatment phytotoxicity, Soybean (soybean [4]; 50 g ai/ha, Soybean (7 days after treatment)): 6
Foliar treatment phytotoxicity, Soybean (soybean [4]; 50 g ai/ha, Soybean (14 days after treatment)): 5
Foliar treatment phytotoxicity, Soybean (soybean [4]; 100 g ai/ha, Soybean (7 days after treatment)): 6
Foliar treatment phytotoxicity, Soybean (soybean [4]; 100 g ai/ha, Soybean (14 days after treatment)): 5
Foliar treatment phytotoxicity, Cotton (cotton [5]; 50 g ai/ha, Cotton (7 days after treatment)): 2
Foliar treatment phytotoxicity, Cotton (cotton [5]; 50 g ai/ha, Cotton (14 days after treatment)): 3
Foliar treatment phytotoxicity, Cotton (cotton [5]; 100 g ai/ha, Cotton (7 days after treatment)): 3
Foliar treatment phytotoxicity, Cotton (cotton [5]; 100 g ai/ha, Cotton (14 days after treatment)): 4
Soil treatment phytotoxicity, Wheat (wheat [6]; 50 g ai/ha, Wheat (10 days after treatment)): 0
Soil treatment phytotoxicity, Wheat (wheat [6]; 50 g ai/ha, Wheat (20 days after treatment)): 0
Soil treatment phytotoxicity, Wheat (wheat [6]; 100 g ai/ha, Wheat (10 days after treatment)): 0
Soil treatment phytotoxicity, Wheat (wheat [6]; 100 g ai/ha, Wheat (20 days after treatment)): 0
Soil treatment phytotoxicity, Rice (rice [7]; 50 g ai/ha, Rice (10 days after treatment)): 0
Soil treatment phytotoxicity, Rice (rice [7]; 50 g ai/ha, Rice (20 days after treatment)): 0
Soil treatment phytotoxicity, Rice (rice [7]; 100 g ai/ha, Rice (10 days after treatment)): 0
Soil treatment phytotoxicity, Rice (rice [7]; 100 g ai/ha, Rice (20 days after treatment)): 0
Soil treatment phytotoxicity, Corn (corn [8]; 50 g ai/ha, Corn (10 days after treatment)): 0
Soil treatment phytotoxicity, Corn (corn [8]; 50 g ai/ha, Corn (20 days after treatment)): 0
Soil treatment phytotoxicity, Corn (corn [8]; 100 g ai/ha, Corn (10 days after treatment)): 0
Soil treatment phytotoxicity, Corn (corn [8]; 100 g ai/ha, Corn (20 days after treatment)): 0
Soil treatment phytotoxicity, Soybean (soybean [9]; 50 g ai/ha, Soybean (10 days after treatment)): 0
Soil treatment phytotoxicity, Soybean (soybean [9]; 50 g ai/ha, Soybean (20 days after treatment)): 0
Soil treatment phytotoxicity, Soybean (soybean [9]; 100 g ai/ha, Soybean (10 days after treatment)): 0
Soil treatment phytotoxicity, Soybean (soybean [9]; 100 g ai/ha, Soybean (20 days after treatment)): 0
Soil treatment phytotoxicity, Cotton (cotton [10]; 50 g ai/ha, Cotton (10 days after treatment)): 1
Soil treatment phytotoxicity, Cotton (cotton [10]; 50 g ai/ha, Cotton (20 days after treatment)): 0
Soil treatment phytotoxicity, Cotton (cotton [10]; 100 g ai/ha, Cotton (10 days after treatment)): 3
Soil treatment phytotoxicity, Cotton (cotton [10]; 100 g ai/ha, Cotton (20 days after treatment)): 0

CCOC(=O)OC(C)N(C(=S)c1ccc(C(F)(F)F)nc1CSCc1nnn(C)n1)c1nnnn1C (stereo not shown) [Compound No. 4-9, ethyl (1-(N-(1-methyl-1H-tetrazol-5-yl)-2-((((2-methyl-2H-tetrazol-5-yl)methyl)thio)methyl)-6-(trifluoromethyl)pyridin-3-carbothioamido)ethyl)carbonate]
Foliar treatment herbicidal activity, black nightshade (black nightshade [11]): 98
Soil treatment herbicidal activity, barnyard grass (barnyard grass [12]): 0
Soil treatment herbicidal activity, Indian jointvetch (indian jointvetch [13]): 100
Foliar treatment herbicidal activity, Bindweed (bindweed): 100
Foliar treatment herbicidal activity, Cocklebur (cocklebur): 100
Foliar treatment herbicidal activity, Fall panicum (fall panicum [14]): 90
Soil treatment herbicidal activity, Fall panicum (fall panicum [15]): 0
Foliar treatment herbicidal activity, velvet leaf (velvetleaf [16]): 98
Foliar treatment herbicidal activity, quack grass (quack grass [17]): 0
Soil treatment herbicidal activity, Sorghum (sorghum [18]): 0
Soil treatment herbicidal activity, Crabgrass (crabgrass [19]): 0
Foliar treatment herbicidal activity, Crabgrass (crabgrass [20]): 98
Soil treatment herbicidal activity, quack grass (quack grass [21]): 0
Foliar treatment herbicidal activity, barnyard grass (barnyard grass [22]): 100
Foliar treatment herbicidal activity, Indian jointvetch (indian jointvetch [23]): 98
Soil treatment herbicidal activity, black nightshade (black nightshade [24]): 100
Soil treatment herbicidal activity, velvet leaf (velvetleaf [25]): 100
Foliar treatment herbicidal activity, Sorghum (sorghum [26]): 70
